In PubChem BioAssay (NCI):
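Step 1: Grow cells in 96-well plates. Step 2: Expose to compound for 48 hours at 5 concentrations. Step 3: Interpolate endpoints linearly; if unreached, use highest concentration. GI50 marks 50% less growth. TGI: concentration producing complete growth inhibition.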

What was measured:
Test in all cases: growth of human tumour cells (NCI), 48 h
OVCAR-4 ovarian = system: OVCAR-4 ovarian
MCF7 breast = system: MCF7 breast
COLO 205 colon = system: COLO 205 colon
T-47D breast = system: T-47D breast
HCT-116 colon = system: HCT-116 colon
ACHN renal = system: ACHN renal
DU-145 prostate = system: DU-145 prostate
HL-60(TB) leukemia = system: HL-60(TB) leukemia
PC-3 prostate = system: PC-3 prostate
OVCAR-3 ovarian = system: OVCAR-3 ovarian
SK-OV-3 ovarian = system: SK-OV-3 ovarian
RXF 393 renal = system: RXF 393 renal
UACC-257 melanoma = system: UACC-257 melanoma
A498 renal = system: A498 renal
EKVX NSCLC = system: EKVX NSCLC
SNB-19 CNS = system: SNB-19 CNS
SR leukemia = system: SR leukemia
OVCAR-8 ovarian = system: OVCAR-8 ovarian
UO-31 renal = system: UO-31 renal
NCI-H226 lung = system: NCI-H226 lung
HT29 colon = system: HT29 colon
KM12 colon = system: KM12 colon
786-0 renal = system: 786-0 renal
IGROV1 ovarian = system: IGROV1 ovarian
MOLT-4 leukemia = system: MOLT-4 leukemia
A549 NSCLC = system: A549 NSCLC
SF-539 CNS = system: SF-539 CNS
SK-MEL-2 melanoma = system: SK-MEL-2 melanoma
M14 melanoma = system: M14 melanoma
SW-620 colon = system: SW-620 colon
SN12C renal = system: SN12C renal
HCT-15 colon = system: HCT-15 colon
NCI-H522 lung = system: NCI-H522 lung
NCI/ADR-RES ovarian = system: NCI/ADR-RES ovarian
BT-549 breast = system: BT-549 breast
HOP-92 NSCLC = system: HOP-92 NSCLC
SF-268 CNS = system: SF-268 CNS
HS 578T breast = system: HS 578T breast
SK-MEL-28 melanoma = system: SK-MEL-28 melanoma
MDA-MB-435 = system: MDA-MB-435
OVCAR-5 ovarian = system: OVCAR-5 ovarian
SK-MEL-5 melanoma = system: SK-MEL-5 melanoma
TK-10 renal = system: TK-10 renal
CAKI-1 renal = system: CAKI-1 renal
MDA-MB-468 breast = system: MDA-MB-468 breast
RPMI-8226 leukemia = system: RPMI-8226 leukemia
K-562 leukemia = system: K-562 leukemia
HOP-62 NSCLC = system: HOP-62 NSCLC
SNB-75 CNS = system: SNB-75 CNS
NCI-H23 lung = system: NCI-H23 lung
MDA-MB-231 breast = system: MDA-MB-231 breast
LOX IMVI melanoma = system: LOX IMVI melanoma
HCC-2998 colon = system: HCC-2998 colon
MALME-3M melanoma = system: MALME-3M melanoma
U251 CNS = system: U251 CNS
UACC-62 melanoma = system: UACC-62 melanoma
SF-295 CNS = system: SF-295 CNS
CCRF-CEM leukemia = system: CCRF-CEM leukemia
NCI-H460 lung = system: NCI-H460 lung

## COc1ccc(/C=C/C(=O)c2ccc(OC)c(S(N)(=O)=O)c2)c(C(F)(F)F)c1
OVCAR-4 ovarian
  GI50: 3.47 µM
  TGI: 15.7 µM
MCF7 breast
  GI50: 2.58 µM
  TGI: 10.6 µM
COLO 205 colon
  GI50: 4.76 µM
  TGI: 28.9 µM
T-47D breast
  GI50: 4.06 µM
  TGI: 24.7 µM
HCT-116 colon
  GI50: 2.41 µM
  TGI: 6.14 µM
ACHN renal
  GI50: 4.28 µM
  TGI: 15.7 µM
DU-145 prostate
  GI50: 3.39 µM
  TGI: 12.8 µM
HL-60(TB) leukemia
  GI50: 4.7 µM
  TGI: 30.7 µM
PC-3 prostate
  GI50: 4.57 µM
  TGI: 18.5 µM
OVCAR-3 ovarian
  GI50: 2.89 µM
  TGI: 10.4 µM
SK-OV-3 ovarian
  GI50: 15.5 µM
  TGI: 43 µM
RXF 393 renal
  GI50: 2.79 µM
  TGI: 11.4 µM
UACC-257 melanoma
  GI50: 9.28 µM
  TGI: 21.9 µM
A498 renal
  GI50: 18.1 µM
  TGI: 37.8 µM
EKVX NSCLC
  GI50: 3.55 µM
  TGI: 16.1 µM
SNB-19 CNS
  GI50: 3.95 µM
  TGI: 16.1 µM
SR leukemia
  GI50: 3 µM
  TGI: 19.5 µM
OVCAR-8 ovarian
  GI50: 2.34 µM
  TGI: 6.27 µM
UO-31 renal
  GI50: 5.14 µM
  TGI: 18.4 µM
NCI-H226 lung
  GI50: 2.11 µM
  TGI: 5.44 µM
HT29 colon
  GI50: 3.2 µM
  TGI: 11.4 µM
KM12 colon
  GI50: 3.89 µM
  TGI: 19 µM
786-0 renal
  GI50: 3.16 µM
  TGI: 14.4 µM
IGROV1 ovarian
  GI50: 3.98 µM
  TGI: 15.8 µM
MOLT-4 leukemia
  GI50: 2.81 µM
  TGI: 13.7 µM
A549 NSCLC
  GI50: 2.99 µM
  TGI: 11.4 µM
SF-539 CNS
  GI50: 1.8 µM
  TGI: 3.4 µM
SK-MEL-2 melanoma
  GI50: 3.78 µM
  TGI: 15.9 µM
M14 melanoma
  GI50: 9.19 µM
  TGI: 25.2 µM
SW-620 colon
  GI50: 2.07 µM
  TGI: 6.19 µM
SN12C renal
  GI50: 2.96 µM
  TGI: 11.4 µM
HCT-15 colon
  GI50: 2.32 µM
  TGI: 6.72 µM
NCI-H522 lung
  GI50: 2.51 µM
  TGI: 14.3 µM
NCI/ADR-RES ovarian
  GI50: 2.61 µM
  TGI: 10.6 µM
BT-549 breast
  GI50: 5.04 µM
  TGI: 16.4 µM
HOP-92 NSCLC
  GI50: 11 µM
  TGI: 34.8 µM
SF-268 CNS
  GI50: 3.35 µM
  TGI: 16.5 µM
HS 578T breast
  GI50: 2.84 µM
  TGI: 19.1 µM
SK-MEL-28 melanoma
  GI50: 11.6 µM
  TGI: 23.8 µM
MDA-MB-435
  GI50: 4.23 µM
  TGI: 19.6 µM
OVCAR-5 ovarian
  GI50: 2.21 µM
  TGI: 6.33 µM
SK-MEL-5 melanoma
  GI50: 3.42 µM
  TGI: 15.1 µM
TK-10 renal
  GI50: 13.4 µM
  TGI: 29.9 µM
CAKI-1 renal
  GI50: 3.82 µM
  TGI: 14.6 µM
MDA-MB-468 breast
  GI50: 2.37 µM
  TGI: 12 µM
RPMI-8226 leukemia
  GI50: 3.48 µM
  TGI: > 100 µM
K-562 leukemia
  GI50: 3.24 µM
  TGI: 12.6 µM
HOP-62 NSCLC
  GI50: 3.23 µM
  TGI: 14.4 µM
SNB-75 CNS
  GI50: 3.22 µM
  TGI: 15.4 µM
NCI-H23 lung
  GI50: 3.4 µM
  TGI: 14.2 µM
MDA-MB-231 breast
  GI50: 2.37 µM
  TGI: 6.14 µM
LOX IMVI melanoma
  GI50: 2.31 µM
  TGI: 6.97 µM
HCC-2998 colon
  GI50: 10.7 µM
  TGI: 24.2 µM
MALME-3M melanoma
  GI50: 5.96 µM
  TGI: 20.6 µM
U251 CNS
  GI50: 2.58 µM
  TGI: 7.32 µM
UACC-62 melanoma
  GI50: 4.7 µM
  TGI: 18.1 µM
SF-295 CNS
  GI50: 4.37 µM
  TGI: 22.5 µM
CCRF-CEM leukemia
  GI50: 2.95 µM
  TGI: 9.7 µM
NCI-H460 lung
  GI50: 2.03 µM
  TGI: 6.2 µM
